Reference: ChEMBL document CHEMBL5523764, “Discovery of NO Donor-Aurovertin Hybrids as Dual Ferroptosis and Apoptosis Inducers for Treating Triple Negative Breast Cancer” (J Med Chem, 2024)

What was measured:
[1] = system: MDA-MB-231; experiment: Antiproliferative activity against human MDA-MB-231 cells assessed as reduction in cell viability incubated for 72 hrs by MTT assay; type: functional, cell-based; details: MDA-MB-231, 72 h
[2] = system: 4T1; experiment: Antiproliferative activity against mouse 4T1 cells assessed as reduction in cell viability incubated for 72 hrs by MTT assay; type: functional, cell-based; details: 4T1, 72 h
[3] = Toxicity in ip dosed mouse assessed as appearance of loose gray stool; type: organism-based; details: in vivo
[4] = Toxicity in mouse assessed as animal death at >6 mg/kg, ip; type: organism-based; details: in vivo
[5] = Selectivity index, ratio of IC50 for cytotoxicity against human MCF-10A cells to IC50 for antiproliferative activity against human MDA-MB-231 cells; type: toxicity, cell-based; details: MCF-10A cells versus MDA-MB-231 cells, read-out: Ratio IC50
[6] = Cytotoxicity against human MCF-10A cells assessed as reduction in cell viability incubated for 72 hrs by MTT assay; type: toxicity, cell-based
[7] = Toxicity in ip dosed mouse assessed as lethal dose; type: organism-based; details: in vivo
[8] = Toxicity in ip dosed mouse assessed as appearance of messy furs; type: organism-based; details: in vivo
[9] = Toxicity in ip dosed mouse assessed as body weight loss; type: organism-based; details: in vivo

For `CC[C@H]1O[C@@]2(C)[C@H](OC(C)=O)[C@@]1(C)O[C@@H](/C=C/C=C/C=C/c1oc(=O)cc(OC)c1C)[C@@H]2O`, the IC50 [1] was 2.17 µM, the IC50 [2] was 3.34 µM and the Activity [3] was “Toxic”. The Activity [4] was “Toxic”, the selectivity ratio [5] was greater than 23 and the IC50 at 72 h [6] was greater than 50 µM. For the same compound, the LD50 [7] was 12 mg/kg, the Activity [8] was “Toxic” and the Activity [9] was “Toxic”.
